Counter-ions that a name gives are not always drawn. Like-named read-outs stand apart in the source and are kept apart here.

Results on 30 compounds are retold here after patent publication US12435061B2 (priority 2020, dated 2025).

The assay has as its target hTRPV3 (Homo sapiens (Human), UniProt Q8NET8). The experiment in a line: Whole-cell patch clamp, hTRPV3 Phase 1 / Phase 2 currents. Type of assay: cell-based. An outline of the steps:
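Whole-cell recordings on induced TRPV3 cells replated on coverslips, held at −40 mV with 400 ms ramps from −120 to +100 mV every 5 s; currents read at −80 and +80 mV. Ringer's external solution; current activated by heating to ≥28 °C or 20 μM 2-APB.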
For orientation: Patch clamp records ionic current or voltage across a cell membrane.

Where [1] appears, read: Phase 1 current, inward, whole-cell patch clamp, read-out: hTRPV3 Patch P1 Inwd.
Where [2] appears, read: Phase 1 current, read-out: hTRPV3 (nM) (Phase 1).
Setting [3] is: Phase 2 current, inward, whole-cell patch clamp, read-out: hTRPV3 Patch P2 Inwd.
[4] abbreviates: Phase 2 current, read-out: hTRPV3 (nM) (Phase 2).
Setting [5] is: Phase 1 current, human TRPV3, read-out: hTRPV3 (nM) Phase 1.

Chain of hTRPV3 (Q8NET8 whole entry): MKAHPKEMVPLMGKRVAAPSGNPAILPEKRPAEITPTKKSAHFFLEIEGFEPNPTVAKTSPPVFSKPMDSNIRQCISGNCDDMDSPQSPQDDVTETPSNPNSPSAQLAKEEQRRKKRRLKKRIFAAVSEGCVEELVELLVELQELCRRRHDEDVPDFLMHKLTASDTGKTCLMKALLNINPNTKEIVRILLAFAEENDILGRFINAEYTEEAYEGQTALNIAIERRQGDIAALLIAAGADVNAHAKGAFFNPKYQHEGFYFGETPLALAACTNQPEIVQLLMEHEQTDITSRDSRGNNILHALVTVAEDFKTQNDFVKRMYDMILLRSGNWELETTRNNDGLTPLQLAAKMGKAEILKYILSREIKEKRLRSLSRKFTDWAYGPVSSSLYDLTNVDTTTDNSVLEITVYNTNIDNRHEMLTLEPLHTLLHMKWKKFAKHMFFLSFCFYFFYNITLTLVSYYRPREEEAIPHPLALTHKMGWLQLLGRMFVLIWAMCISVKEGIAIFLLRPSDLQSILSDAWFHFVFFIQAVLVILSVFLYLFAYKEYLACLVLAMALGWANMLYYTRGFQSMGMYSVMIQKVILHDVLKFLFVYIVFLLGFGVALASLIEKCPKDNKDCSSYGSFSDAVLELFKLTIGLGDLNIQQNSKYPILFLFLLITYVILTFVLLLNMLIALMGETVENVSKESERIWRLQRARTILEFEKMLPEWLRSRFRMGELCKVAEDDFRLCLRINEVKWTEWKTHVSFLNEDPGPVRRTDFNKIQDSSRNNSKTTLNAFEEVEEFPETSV

Regarding `NC(=O)c1cc(C2=NCCN2)ccc1N1CC[C@@H](Oc2ccc(C(F)(F)F)cn2)C1` [Compound 1-100, (R)-5-(4,5-dihydro-1H-imidazol-2-yl)-2-(3-(5-(trifluoromethyl)pyridin-2-yloxy)pyrrolidin-1-yl)benzamide], the IC50 by setting is: (hTRPV3 Patch P1 Inwd (nM)) more than 1000 nM; (hTRPV3 Patch P2 Inwd (nM)) more than 1000 nM; (read-out: hTRPV3 (nM) (Phase 1)) more than 3200 nM; (read-out: hTRPV3 (nM) (Phase 2)) more than 3200 nM.

On to `CC(O)c1cc(F)ccc1Oc1ccc(N2CC[C@H](Oc3ccccn3)C2)c(CO)c1` (stereo partly shown) [Compound 1-326], for which the IC50 under setting [1] is more than 1000 nM, the IC50 under setting [2] is 1470 nM, the IC50 under setting [3] lay in the range of 100 to 1000 nM and the IC50 under setting [4] came to 575 nM.

On to `O=C(c1ccc(Cl)cc1)c1ccc(N2CC[C@H](Oc3ncccc3Cl)C2)c(CO)c1` [Compound 1-288, (S)-(4-chlorophenyl)(4-(3-(3-chloropyridin-2-yloxy)pyrrolidin-1-yl)-3-(hydroxymethyl)phenyl)methanone], for which, under setting [1], the IC50 lay within 10 to 100 nM.

As to `COC(=O)c1cc(-c2ccccc2C(C)C)ccc1C1CCN(C(=O)c2ccc(F)cn2)C1` (stereo not shown) [Compound 2-23], the IC50 under setting [5] is 886 nM and the IC50 under setting [1] lay within 100 to 1000 nM.

For `O=C1C(Oc2ccc3ccccc3n2)CCN1c1cccc2ccccc12` (stereo not shown) [Compound 1-101], the IC50 runs as follows: under setting [1], more than 1000 nM; under setting [2], more than 1000 nM; under setting [3], more than 1000 nM; under setting [4], more than 1000 nM.

Take `CCc1ccccc1Oc1ccc(N2CC[C@H](Oc3ccc(C)cn3)C2)c(CO)n1` [Compound 1-214, (S)-(6-(2-ethylphenoxy)-3-(3-(5-methylpyridin-2-yloxy)pyrrolidin-1-yl)pyridin-2-yl)methanol]: the “hTRPV3 (nM) (Phase 1)” value (Phase 1 current) is recorded as “Incomplete Block (Phase 1)”.

As for `CC(C)(C)OC(=O)c1ccccc1N1CC[C@H](Oc2ccc(C(F)(F)F)cn2)C1` [Compound 1-54, (S)-tert-butyl 2-(3-(5-(trifluoromethyl)pyridin-2-yloxy)pyrrolidin-1-yl)benzoate], the IC50 under setting [1] is more than 1000 nM.

Take `CC(C)Oc1ccccc1N1CC[C@H](Oc2ccc(C(F)(F)F)cn2)C1` [Compound 1-15, (S)-2-(1-(2-isopropoxyphenyl)pyrrolidin-3-yloxy)-5-(trifluoromethyl)pyridine]: the IC50 under setting [1] was more than 1000 nM and the IC50 under setting [3] is more than 1000 nM.

As to `NCc1cc(-c2ccccc2)ccc1N1CC[C@H](Oc2ncccc2Cl)C1` [Compound 1-125, (S)-(4-(3-(3-chloropyridin-2-yloxy)pyrrolidin-1-yl)biphenyl-3-yl)methanamine hydrochloride], the IC50 is more than 1000 nM under setting [3] and more than 3200 nM under setting [4].

With `FC(F)(F)c1ccc(O[C@@H]2CCN(c3ccccc3OCc3ccccc3)C2)nc1` [Compound 1-38, (R)-2-(1-(2-(benzyloxy)phenyl)pyrrolidin-3-yloxy)-5-(trifluoromethyl)pyridine], under setting [1], the IC50 was more than 1000 nM.

Consider `CCc1ccccc1Oc1ccc(C2CCN(C(=O)c3ccc(Cl)cn3)C2)c(C(N)=O)c1` (stereo not shown) [Compound 2-39, 2-(1-(5-chloropicolinoyl)pyrrolidin-3-yl)-5-(2-ethylphenoxy)benzamide], for which the IC50 under setting [5] came to 681 nM and the IC50 under setting [1] was in the range of 100 to 1000 nM.

Regarding `COC(C)c1ccccc1Oc1ccc(N2CC[C@H](Oc3ccc(F)cn3)C2)c(CCO)c1` (stereo partly drawn) [Compound 1-347, 2-(2-((S)-3-(5-fluoropyridin-2-yloxy)pyrrolidin-1-yl)-5-(2-(1-methoxyethyl)phenoxy)phenyl)ethanol], the IC50 was 100 to 1000 nM under setting [1], 220 nM under setting [2], 100 to 1000 nM under setting [3] and 198 nM under setting [4].

Turning to `COc1ccc(C(=O)N2CCC(c3ccc(-c4ccccc4C4CC4)cc3CO)C2)nc1` (stereo not shown) [Compound 2-76, (3-(2′-cyclopropyl-3-(hydroxymethyl)biphenyl-4-yl)pyrrolidin-1-yl)(5-methoxypyridin-2-yl)methanone], the IC50 runs as follows: under setting [5], 71 nM; under setting [1], 10 to 100 nM.

Turning to `Cc1cccnc1CO[C@H]1CCN(c2ccc(-c3ccccc3)cc2CO)C1` [Compound 1-399], the IC50 by setting is: under setting [2], more than 3200 nM; under setting [4], 481 nM.

Turning to `NCc1cc(-c2ccccc2Cl)ccc1N1CC[C@H](Oc2ncccc2Cl)C1` [Compound 1-122, (S)-(2′-chloro-4-(3-(3-chloropyridin-2-yloxy)pyrrolidin-1-yl)biphenyl-3-yl)methanamine hydrochloride], the IC50 by setting is: under setting [1], more than 1000 nM; under setting [2], more than 3200 nM; under setting [3], more than 1000 nM; under setting [4], less than 3200 nM.

With `NC(=O)c1cc(-c2ccncc2)ccc1N1CC[C@@H](Oc2ncccc2Cl)C1` [Compound 1-82, (R)-2-(3-(3-chloropyridin-2-yloxy)pyrrolidin-1-yl)-5-(pyridin-4-yl)benzamide hydrochloride], the IC50 reads like this: under setting [1], more than 1000 nM; under setting [2], 3600 nM; under setting [3], more than 1000 nM; under setting [4], 1930 nM.

As to `O=C(c1cccc(Cl)c1)c1ccc(CCO)c(N2CC[C@H](Oc3ncccc3Cl)C2)c1` [Compound 1-314, (S)-(3-chlorophenyl)(3-(3-(3-chloropyridin-2-yloxy)pyrrolidin-1-yl)-4-(2-hydroxyethyl)phenyl)methanone], the IC50 is 100 to 1000 nM under setting [1], 229 nM under setting [2], 100 to 1000 nM under setting [3] and 307 nM under setting [4].

Take `CC(O)c1cc(F)ccc1-c1ccc(C2CCN(C(=O)c3ccc(Cl)cn3)C2)c(CO)c1` (stereo not shown) [Compound 2-71, (5-chloropyridin-2-yl)(3-(4′-fluoro-2′-(1-hydroxyethyl)-3-(hydroxymethyl)biphenyl-4-yl)pyrrolidin-1-yl)methanone]: the IC50 reads like this: under setting [5], 860 nM; under setting [1], 100 to 1000 nM; (Phase 2 current, human TRPV3, read-out: hTRPV3 (nM) Phase 2) 572 nM; under setting [3], 100 to 1000 nM.

On to `CC(C)c1ccccc1Oc1ccc(C2CCN(C(=O)c3ccccn3)C2)c(C(N)=O)c1` (stereo not shown) [Compound 2-31, 5-(2-isopropylphenoxy)-2-(1-picolinoylpyrrolidin-3-yl)benzamide], for which the IC50 is, setting by setting: under setting [5], 1370 nM; under setting [1], more than 1000 nM.

As to `NC(=O)c1ccccc1N1CCC(Oc2ccc3ccccc3n2)C1=O` (stereo not shown) [Compound 1-105, 2-(2-oxo-3-(quinolin-2-yloxy)pyrrolidin-1-yl)benzamide], the IC50 by setting is: under setting [1], more than 1000 nM; under setting [2], more than 3200 nM.

For `O=C(c1ncccc1Cl)N1CCC(c2ccc(C(O)c3ccccc3F)cc2CO)C1` (stereo not shown) [Compound 2-5, (3-chloropyridin-2-yl)(3-(4-((2-fluorophenyl)(hydroxy)methyl)-2-(hydroxymethyl)phenyl)pyrrolidin-1-yl)methanone], the IC50 was more than 3200 nM under setting [5] and more than 1000 nM under setting [1].

As to `NC(=O)c1cc(C(F)(F)F)ccc1N1CC[C@@H](Oc2ccc(C(F)(F)F)cn2)C1` [Compound 1-84, (R)-5-(trifluoromethyl)-2-(3-(5-(trifluoromethyl)pyridin-2-yloxy)pyrrolidin-1-yl)benzamide], the IC50 is 100 to 1000 nM under setting [1] and 631 nM under setting [2].

Turning to `N#Cc1nc(-c2ccccc2)ccc1N1CC[C@@H](Oc2ccc(C(F)(F)F)cn2)C1` [Compound 1-97], the IC50 is, setting by setting: under setting [3], more than 1000 nM; under setting [4], 2930 nM.

Take `COCc1ccc(C(O)c2ccc(N3CC[C@H](Oc4ncccc4Cl)C3)c(CO)c2)cc1` (stereo partly drawn) [Compound 1-290, (4-((S)-3-(3-chloropyridin-2-yloxy)pyrrolidin-1-yl)-3-(hydroxymethyl)phenyl)(4-(methoxymethyl)phenyl)methanol]: the IC50 runs as follows: under setting [1], more than 1000 nM; under setting [2], more than 3200 nM; under setting [3], more than 1000 nM; under setting [4], more than 3200 nM.

Consider `O=C(c1ncccc1Cl)N1CCC(c2ccc(-c3ccccc3C3CC3)cc2CO)C1` (stereo not shown) [Compound 2-55, (3-chloropyridin-2-yl)(3-(2′-cyclopropyl-3-(hydroxymethyl)biphenyl-4-yl)pyrrolidin-1-yl)methanone], for which the IC50 was 88.4 nM under setting [5] and 10 to 100 nM under setting [1].

Regarding `NC(=O)c1cc(-c2ccccc2)ccc1N1CC[C@H](Nc2ccc(C(F)(F)F)cn2)C1` [Compound 1-372, (S)-4-(3-(5-(trifluoromethyl)pyridin-2-ylamino)pyrrolidin-1-yl)biphenyl-3-carboxamide], the IC50 under setting [1] was more than 1000 nM and the IC50 under setting [3] is more than 1000 nM.

As to `COC(C)c1ccccc1Oc1ccc(N2CC[C@H](Oc3ccccn3)C2)c(CCO)c1` (stereo partly drawn) [Compound 1-357, 2-(5-(2-(1-methoxyethyl)phenoxy)-2-((S)-3(pyridin-2-yloxy)pyrrolidin-1-yl)phenyl)ethanol], the IC50 is 100 to 1000 nM under setting [1] and 312 nM under setting [2].

Consider `Cc1ccc(C(=O)c2ccc(N3CC[C@H](Oc4ncccc4Cl)C3)c(CCO)c2)cc1` [Compound 1-295, (S)-(4-(3-(3-chloropyridin-2-yloxy)pyrrolidin-1-yl)-3-(2-hydroxyethyl)phenyl)(p-tolyl)methanone], for which the IC50 is 100 to 1000 nM under setting [1], approximately 225 nM under setting [2], 100 to 1000 nM under setting [3] and approximately 178 nM under setting [4].

Consider `Cc1cccc(CN2CCC(c3ccc(Oc4ccccc4C(C)C)cc3CO)C2)n1` (stereo not shown) [Compound 2-94, (5-(2-isopropylphenoxy)-2-(1-((6-methylpyridin-2-yl)methyl)pyrrolidin-3-yl)phenyl)methanol hydrochloride], for which the IC50 is 339 nM under setting [5] and 100 to 1000 nM under setting [1].

As for `O=C(c1ccc(N2CC[C@H](Oc3ncccc3F)C2)c(CO)c1)c1ccccc1Cl` [Compound 1-265, (S)-(2-chlorophenyl)(4-(3-(3-fluoropyridin-2-yloxy)pyrrolidin-1-yl)-3-(hydroxymethyl)phenyl)methanone], the IC50 is more than 1000 nM under setting [1] and 1780 nM under setting [2].
